Laboratory results published in patent US6436959B1 (priority 1998, dated 2002).

Key:
opioid delta receptor = target: T1, opioid delta receptor (Homo sapiens, UniProt P41143); assay type: binding
T1 construct: purchased Receptor Biology, Baltimore, Md; host or cells: CHO cells (recombinant, membranes)

δ-opioid receptor = target: T2, δ-opioid receptor (Rattus norvegicus, UniProt P33533); conditions: read-out: Ki in binding to the δ-opioid receptor
T2 construct: the forebrains are homogenized in Tris buffer in a Teflon®-glass homogenizer; from tissue; host or cells: forebrain of male Wistar rats, particulate (membrane) preparation

[1] = test system: acetylcholine bromide-induced abdominal constriction response; experiment: Mouse Acetylcholine Bromide-Induced Abdominal Constriction Assay; assay type: in vivo; conditions: p.o., 30 minutes before i.p. 5.5 mg/kg acetylcholine bromide, % inhibition of constriction response (% analgesia)
Procedure: C) Mouse Acetylcholine Bromide-Induced Abdominal Constriction Assay
The mouse acetylcholine-induced abdominal constiction assay, as described by Collier et al. in Brit. J. Pharmacol. Chem. Ther., 32: 295-310, 1968, with minor modifications was used to assess analgesic potency of the compounds of formula (I). The test drugs or appropriate vehicles were administered orally (p.o.) and 30 minutes later the animal received an intraperitoneal (i.p.) injection of 5.5 mg/kg acetylcholine bromide (Matheson, Coleman and Bell, East Rutherford, N.J.). The mice were then placed in groups of three into glass bell jars and observed for a ten minute observation period for the occurrence of an abdominal constriction response (defined as a wave of constriction and elongation passing caudally along the abdominal wall, accompanied by a twisting of the trunk and followed by extension of the hind limbs). The percent inhibition of this response to a nociceptive stimulus (equated to % analgesia) was calculated as follows: The % inhibition of response, i.e., % analgesia is equal to the difference between the No. of control animal responses and the No. of drug-treated animal responses times 100 divided by the No. of control animals responding.

μ-opioid receptor = μ-opioid receptor (Rattus norvegicus, UniProt P33535); conditions: read-out: Ki in binding to the μ-opioid receptor; rat forebrain preparation, [3H]DAMGO, 25° C.
Sequence of μ-opioid receptor (P33535 whole entry): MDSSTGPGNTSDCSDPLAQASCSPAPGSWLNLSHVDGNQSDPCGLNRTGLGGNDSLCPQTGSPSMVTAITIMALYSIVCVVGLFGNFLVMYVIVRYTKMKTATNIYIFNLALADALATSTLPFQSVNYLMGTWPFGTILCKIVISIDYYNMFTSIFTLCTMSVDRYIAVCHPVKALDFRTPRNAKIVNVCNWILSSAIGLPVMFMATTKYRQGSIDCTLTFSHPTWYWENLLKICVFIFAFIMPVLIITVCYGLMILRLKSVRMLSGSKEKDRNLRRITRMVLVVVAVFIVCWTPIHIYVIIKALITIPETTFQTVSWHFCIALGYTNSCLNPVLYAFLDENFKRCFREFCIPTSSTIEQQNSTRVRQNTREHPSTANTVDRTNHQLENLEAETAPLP

T2 sequence (P33533 whole entry): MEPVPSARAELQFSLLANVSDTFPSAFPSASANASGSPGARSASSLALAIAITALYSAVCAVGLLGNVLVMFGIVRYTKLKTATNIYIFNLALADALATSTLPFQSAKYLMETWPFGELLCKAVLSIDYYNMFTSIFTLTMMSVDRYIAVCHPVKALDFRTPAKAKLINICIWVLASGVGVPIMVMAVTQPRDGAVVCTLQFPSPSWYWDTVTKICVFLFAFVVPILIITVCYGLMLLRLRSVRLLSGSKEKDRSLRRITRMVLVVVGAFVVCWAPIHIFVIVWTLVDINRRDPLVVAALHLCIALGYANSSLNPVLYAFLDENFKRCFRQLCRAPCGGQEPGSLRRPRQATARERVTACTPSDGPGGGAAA
T1 sequence (P41143 whole entry): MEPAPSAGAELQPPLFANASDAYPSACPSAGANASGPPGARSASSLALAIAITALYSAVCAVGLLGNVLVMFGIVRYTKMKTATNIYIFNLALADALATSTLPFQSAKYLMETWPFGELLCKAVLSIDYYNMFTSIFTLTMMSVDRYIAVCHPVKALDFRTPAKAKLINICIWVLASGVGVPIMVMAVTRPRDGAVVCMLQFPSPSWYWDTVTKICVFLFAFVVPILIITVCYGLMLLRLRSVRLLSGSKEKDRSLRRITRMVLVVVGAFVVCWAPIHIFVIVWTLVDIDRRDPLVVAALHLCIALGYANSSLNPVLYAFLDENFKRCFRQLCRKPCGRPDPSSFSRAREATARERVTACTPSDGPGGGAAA

Structure (SMILES): CCCN1CCC(N(c2ccccc2)c2cccc(C(=O)N(C)c3ccccc3)c2)CC1.O=C(O)/C=C/C(=O)O [C4, N-Methyl-N-phenyl-3-[phenyl(1-propylpiperidin-4-yl)amino]benzamide Fumarate[1:1.4]]
- % I @ 25 μM (opioid delta receptor): 41%
- Ki (δ-opioid receptor): 25 nM
- ED50 [1]: 4.2 µmol/kg
- Ki (μ-opioid receptor): 153 nM
